In publication PMC5038983 (The Journal of neuroscience : the official journal of the …, 2011) one finds IC50 data, which are given here for 1 compound.

The assay addresses T1, PME-1 (PP2A-specific methylesterase) (Homo sapiens, UniProt Q9Y570).
T1 sequence (Q9Y570 2-386): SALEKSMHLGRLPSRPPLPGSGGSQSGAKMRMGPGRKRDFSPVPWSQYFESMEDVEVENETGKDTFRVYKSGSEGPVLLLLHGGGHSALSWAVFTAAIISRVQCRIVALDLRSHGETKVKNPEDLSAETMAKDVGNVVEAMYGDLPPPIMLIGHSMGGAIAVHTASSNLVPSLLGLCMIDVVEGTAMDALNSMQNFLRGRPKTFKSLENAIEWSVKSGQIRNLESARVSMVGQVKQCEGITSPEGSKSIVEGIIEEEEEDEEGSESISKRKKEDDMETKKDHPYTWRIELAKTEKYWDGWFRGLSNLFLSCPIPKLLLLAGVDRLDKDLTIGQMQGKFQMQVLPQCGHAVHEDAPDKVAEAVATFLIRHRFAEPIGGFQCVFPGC
In kind it is biochemical.

As a reminder, the IC50 is the concentration at which inhibition is half-maximal. Lower therefore signals greater potency in that assay.

As for `CCCCCCCCCCCCCCCCCCCC(=O)NCCc1c[nH]c2ccc(O)cc12` [EHT, eicosinoyl-5-hydroxytryptamide], half-maximal inhibition (IC50) required 3.9 µM.
